Test results taken from ChEMBL document CHEMBL5665443, “Enzyme Inhibitor Single Concentration assay results for EUbOPEN Chemogenomics Library” (2024).

Key:
Conditions in all cases: Hit No
[1] = molecular target: Methyl-CpG-binding domain protein 4 (Homo sapiens) (UniProt O95243);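 also: MBD4 activity read as fluorescence at 594 nm from cleavage and release of a quenched duplex DNA oligonucleotide, with APE1 coupled to incise the strand and raise turnover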
Description: Inhibition of MBD4 by quantifying inhibition of MBD4-mediated cleavage and dissociation of quenched duplex DNA oligonucleotides, measured as fluorescence at 594 nm. To generate a functional strand incision and increase turn-over this assay is coupled to APE1.

[2] = molecular target: Endonuclease 8-like 1 (Homo sapiens) (UniProt Q96FI4);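 also: fluorescence at 594 nm from quenched duplex DNA oligonucleotides released by NEIL1 cleavage and strand separation, reported as reduction of this enzyme activity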
Description: Inhibition of NEIL1 by quantifying inhibition of NEIL1-mediated cleavage and dissociation of quenched duplex DNA oligonucleotides, measured as fluorescence at 594 nm.

[3] = molecular target: T1, Endonuclease 8-like 2 (Homo sapiens) (UniProt Q969S2);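 also: fluorescence at 594 nm reports NEIL2 cutting and release of a quenched double-stranded DNA oligo substrate, reduced signal read as inhibition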
T1 sequence (whole entry): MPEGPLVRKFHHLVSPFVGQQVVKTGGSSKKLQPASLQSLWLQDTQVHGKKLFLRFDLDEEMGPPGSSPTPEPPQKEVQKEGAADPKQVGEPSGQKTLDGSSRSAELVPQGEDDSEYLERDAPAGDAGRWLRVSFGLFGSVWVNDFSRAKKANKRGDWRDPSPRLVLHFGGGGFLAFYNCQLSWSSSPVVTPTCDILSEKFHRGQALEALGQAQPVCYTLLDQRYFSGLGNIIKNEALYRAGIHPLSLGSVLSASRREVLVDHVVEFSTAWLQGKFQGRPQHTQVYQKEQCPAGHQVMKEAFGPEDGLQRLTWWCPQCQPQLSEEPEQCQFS
Description: Inhibition of NEIL2 by quantifying inhibition of NEIL2-mediated cleavage and dissociation of quenched duplex DNA oligonucleotides, measured as fluorescence at 594 nm.

[4] = molecular target: T2, Endonuclease III-like protein 1 (Homo sapiens) (UniProt P78549);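 also: enzyme assay tracking NTHL1 cutting and release of a quenched double-stranded DNA oligo substrate, read as fluorescence at 594 nm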
T2 sequence (whole entry): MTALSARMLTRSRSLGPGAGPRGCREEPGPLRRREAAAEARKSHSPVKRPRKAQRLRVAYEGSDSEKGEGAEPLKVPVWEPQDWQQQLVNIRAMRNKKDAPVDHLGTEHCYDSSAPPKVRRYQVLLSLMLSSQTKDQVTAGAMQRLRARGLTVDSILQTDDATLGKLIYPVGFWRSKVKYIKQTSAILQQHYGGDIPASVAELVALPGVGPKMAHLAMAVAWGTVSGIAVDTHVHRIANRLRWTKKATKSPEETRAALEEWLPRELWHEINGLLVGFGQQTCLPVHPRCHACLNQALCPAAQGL
Description: Inhibition of NTHL1 by quantifying inhibition of NTHL1-mediated cleavage and dissociation of quenched duplex DNA oligonucleotides, measured as fluorescence at 594 nm.

[5] = molecular target: N-glycosylase/DNA lyase (Homo sapiens) (UniProt O15527);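 also: OGG1 cleavage of a quenched duplex DNA oligonucleotide, coupled to APE1 for strand incision, read as fluorescence at 594 nm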
Description: Inhibition of OGG1 by quantifying inhibition of OGG1-mediated cleavage and dissociation of quenched duplex DNA oligonucleotides, measured as fluorescence at 594 nm. To generate a functional strand incision and increase turn-over this assay is coupled to APE1.

[6] = molecular target: T3, Single-strand selective monofunctional uracil DNA glycosylase (Homo sapiens) (UniProt Q53HV7);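 also: enzymatic SMUG1 assay coupled with APE1, reading fluorescence at 594 nm released when a quenched double-stranded DNA oligonucleotide substrate is cleaved and separated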
T3 sequence (whole entry): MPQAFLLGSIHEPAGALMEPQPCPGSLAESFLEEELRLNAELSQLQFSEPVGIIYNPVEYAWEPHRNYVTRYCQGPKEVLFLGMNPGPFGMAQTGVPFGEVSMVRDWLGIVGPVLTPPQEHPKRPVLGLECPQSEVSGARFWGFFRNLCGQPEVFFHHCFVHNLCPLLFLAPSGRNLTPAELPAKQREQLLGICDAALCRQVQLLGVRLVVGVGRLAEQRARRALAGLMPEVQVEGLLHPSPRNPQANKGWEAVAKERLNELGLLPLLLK
Description: Inhibition of SMUG1 by quantifying inhibition of SMUG1-mediated cleavage and dissociation of quenched duplex DNA oligonucleotides, measured as fluorescence at 594 nm. To generate a functional strand incision and increase turn-over this assay is coupled to APE1.

[7] = molecular target: G/T mismatch-specific thymine DNA glycosylase (Homo sapiens) (UniProt Q13569);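 also: human TDG cleavage of quenched duplex DNA oligonucleotides coupled to APE1, strand release read as fluorescence at 594 nm, inhibition of TDG activity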
Description: Inhibition of TDG by quantifying inhibition of TDG-mediated cleavage and dissociation of quenched duplex DNA oligonucleotides, measured as fluorescence at 594 nm. To generate a functional strand incision and increase turn-over this assay is coupled to APE1.

[8] = molecular target: Uracil-DNA glycosylase (Homo sapiens) (UniProt P13051);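 also: UNG excision on a quenched double-stranded DNA oligo probe, with APE1 added for strand incision and turnover, read as fluorescence at 594 nm as strands separate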
Chain of Uracil-DNA glycosylase (Homo sapiens) (P13051 whole entry): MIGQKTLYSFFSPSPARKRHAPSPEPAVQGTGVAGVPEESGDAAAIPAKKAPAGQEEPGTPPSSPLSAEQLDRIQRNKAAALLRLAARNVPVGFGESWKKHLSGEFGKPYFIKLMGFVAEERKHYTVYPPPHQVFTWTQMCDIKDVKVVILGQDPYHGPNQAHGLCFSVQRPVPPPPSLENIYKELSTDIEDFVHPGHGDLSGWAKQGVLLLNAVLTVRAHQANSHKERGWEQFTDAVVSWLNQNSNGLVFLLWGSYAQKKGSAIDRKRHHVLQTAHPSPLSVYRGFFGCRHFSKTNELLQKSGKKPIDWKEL
Description: Inhibition of UNG by quantifying inhibition of UNG-mediated cleavage and dissociation of quenched duplex DNA oligonucleotides, measured as fluorescence at 594 nm. To generate a functional strand incision and increase turn-over this assay is coupled to APE1.

Chain of N-glycosylase/DNA lyase (Homo sapiens) (O15527 whole entry): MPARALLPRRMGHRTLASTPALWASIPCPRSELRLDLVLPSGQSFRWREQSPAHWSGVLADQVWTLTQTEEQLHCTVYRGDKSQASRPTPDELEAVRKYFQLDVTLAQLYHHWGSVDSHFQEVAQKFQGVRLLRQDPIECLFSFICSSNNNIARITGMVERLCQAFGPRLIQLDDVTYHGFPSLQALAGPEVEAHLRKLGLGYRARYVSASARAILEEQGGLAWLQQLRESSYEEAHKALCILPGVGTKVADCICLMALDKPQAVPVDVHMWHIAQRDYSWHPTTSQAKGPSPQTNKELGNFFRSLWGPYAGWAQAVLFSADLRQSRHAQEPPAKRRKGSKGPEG
Chain of G/T mismatch-specific thymine DNA glycosylase (Homo sapiens) (Q13569 whole entry): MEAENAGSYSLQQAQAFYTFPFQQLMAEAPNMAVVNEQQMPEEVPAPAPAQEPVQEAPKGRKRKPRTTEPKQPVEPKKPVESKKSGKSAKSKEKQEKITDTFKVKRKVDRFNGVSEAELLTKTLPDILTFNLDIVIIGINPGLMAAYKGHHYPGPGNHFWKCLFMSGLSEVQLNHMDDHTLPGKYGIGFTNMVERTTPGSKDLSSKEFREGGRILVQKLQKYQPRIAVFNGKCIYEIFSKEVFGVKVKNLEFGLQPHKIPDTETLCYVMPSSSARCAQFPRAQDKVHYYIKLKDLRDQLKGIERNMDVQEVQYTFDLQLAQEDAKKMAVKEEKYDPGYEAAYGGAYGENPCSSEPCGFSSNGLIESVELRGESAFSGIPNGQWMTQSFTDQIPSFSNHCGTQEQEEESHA
Chain of Methyl-CpG-binding domain protein 4 (Homo sapiens) (O95243 whole entry, the tested form may be a part): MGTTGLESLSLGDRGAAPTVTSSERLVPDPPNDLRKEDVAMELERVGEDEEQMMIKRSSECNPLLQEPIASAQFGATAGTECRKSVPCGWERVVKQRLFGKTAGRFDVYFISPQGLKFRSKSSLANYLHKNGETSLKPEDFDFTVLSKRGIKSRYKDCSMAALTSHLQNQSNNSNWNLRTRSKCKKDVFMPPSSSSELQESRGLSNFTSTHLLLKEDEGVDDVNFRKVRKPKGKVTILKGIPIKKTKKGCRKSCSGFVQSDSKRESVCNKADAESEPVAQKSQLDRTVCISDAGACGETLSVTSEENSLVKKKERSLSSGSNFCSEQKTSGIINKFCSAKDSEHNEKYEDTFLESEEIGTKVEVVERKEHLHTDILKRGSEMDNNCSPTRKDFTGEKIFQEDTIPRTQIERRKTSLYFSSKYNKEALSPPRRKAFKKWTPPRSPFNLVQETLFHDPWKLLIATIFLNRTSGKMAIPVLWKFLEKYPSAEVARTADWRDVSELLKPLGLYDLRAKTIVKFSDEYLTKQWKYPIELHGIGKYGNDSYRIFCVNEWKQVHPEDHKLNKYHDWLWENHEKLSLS
Chain of Endonuclease 8-like 1 (Homo sapiens) (Q96FI4 whole entry): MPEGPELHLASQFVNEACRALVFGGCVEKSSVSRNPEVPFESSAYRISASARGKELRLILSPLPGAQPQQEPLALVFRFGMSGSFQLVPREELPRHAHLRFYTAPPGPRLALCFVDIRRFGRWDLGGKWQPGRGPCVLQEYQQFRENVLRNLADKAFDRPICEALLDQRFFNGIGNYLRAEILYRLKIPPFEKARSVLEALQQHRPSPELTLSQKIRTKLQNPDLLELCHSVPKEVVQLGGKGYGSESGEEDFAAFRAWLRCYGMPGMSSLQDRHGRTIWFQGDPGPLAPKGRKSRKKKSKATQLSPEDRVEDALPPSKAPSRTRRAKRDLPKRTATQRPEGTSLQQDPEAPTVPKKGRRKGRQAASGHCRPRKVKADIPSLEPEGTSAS

Row | SMILES | inhibition ([1]; Compound Concentration 10.0 uM) | inhibition ([2]; Compound Concentration 10.0 uM) | inhibition ([3]; Compound Concentration 10.0 uM) | inhibition ([4]; Compound Concentration 10.0 uM) | inhibition ([5]; Compound Concentration 10.0 uM) | inhibition ([6]; Compound Concentration 10.0 uM) | inhibition ([7]; Compound Concentration 10.0 uM) | inhibition ([8]; Compound Concentration 10.0 uM) | inhibition ([1]; Compound Concentration 1.0 uM) | inhibition ([2]; Compound Concentration 1.0 uM) | inhibition ([3]; Compound Concentration 1.0 uM) | inhibition ([5]; Compound Concentration 1.0 uM) | inhibition ([6]; Compound Concentration 1.0 uM) | inhibition ([7]; Compound Concentration 1.0 uM) | inhibition ([8]; Compound Concentration 1.0 uM) | inhibition ([4]; Compound Concentration 1.0 uM)
1 | CCOC(=O)N1CCC(NS(=O)(=O)c2ccc(NC(=O)c3ccccc3C)c3ccccc23)CC1 | -4.31% | 16.8% | 3.73% | -6.86% | 6.16% | -0.636% | 4.53% | -2.92% | – | – | – | – | – | – | – | –
2 | O=C(NCCCC1CCCCC1)c1ccc(CNC(=O)c2cnn(-c3ccccc3)c2C(F)(F)F)cc1 | – | – | – | -3.4% | 4.23% | 6.97% | 22.8% | 0.115% | 56.5% | -2.11% | -8.65% | 7.9% | 0.918% | 42.2% | -2.97% | –
3 | CCn1c(CNC(=O)c2ncc(C)nc2N)[n+](CC)c2ccc(C(=O)N(C)CCN(C)C)cc21 | 47.5% | -4.53% | 1.3% | -6.55% | 14.2% | 1.28% | 100% | -0.563% | – | – | – | – | – | – | – | –
4 | CCCc1c(OCCCOc2ccc(OCC(=O)O)cc2)ccc(C(C)=O)c1O | 63.2% | -2.56% | 10.5% | 3.31% | 64.5% | 4.9% | 63% | 2.04% | – | – | – | – | – | – | – | –
5 | CC[C@@H]1CN2C(=O)N(C)c3nc(-c4ccccc4)[nH]c3C2=N1 | -6.99% | 0.982% | -3.73% | 7.79% | -8.56% | -6.04% | -6.27% | -9.41% | – | – | – | – | – | – | – | –
6 | CCCCOCCOc1nc(-c2ccc(C(=O)O)c(F)c2)sc1C | 64.4% | 6.68% | 6.14% | -1.29% | 14.4% | 18.1% | 46.5% | 1.01% | – | – | – | – | – | – | – | –
7 | O=C(O)c1ccnc(N2CC(O)(c3ccc(OCc4c(-c5c(Cl)cccc5Cl)noc4C4CC4)cc3Cl)C2)c1 | 54.3% | -4.99% | 3.34% | 5.29% | 35.5% | 16.5% | 97.2% | 4.51% | – | – | – | – | – | – | – | –
8 | C[C@H](NC(=O)Cc1ccc(-c2ccc3cccnc3n2)cc1)c1ccc(-c2ccc(F)c(C(F)(F)F)c2)cc1 | 22.6% | 7.12% | -4.68% | 14.6% | 5.81% | -7.59% | 8.35% | -4.78% | – | – | – | – | – | – | – | –
9 | C[C@@H](c1cccc(CN)c1)n1cc(Cl)cc(C(N)=O)c1=N | 72.4% | -9.23% | 0.0213% | -5.89% | -2.92% | 3.56% | 49.3% | -0.0293% | – | – | – | – | – | – | – | –
10 | CNC(=O)c1cc(C(=O)NC2CC2)cn(Cc2ccccc2)c1=O | 59.4% | 8.49% | -1.25% | -1.29% | 10.8% | -2.99% | 29.8% | -2.05% | – | – | – | – | – | – | – | –
11 | CCOC(=O)c1ccc(C#Cc2ccc3c(c2)C(C)(C)CCS3)nc1 | 50.8% | 1.22% | 2.06% | 3.31% | 22.7% | 8.77% | 98.1% | -5.12% | – | – | – | – | – | – | – | –
12 | O=C(O)CCC/C=C\CC1C(O)CC(O)C1/C=C/C(O)COc1cccc(Cl)c1 (centres undefined) | -2.64% | -0.0556% | -0.234% | 21% | -6.16% | -7.54% | 2.98% | -7.78% | – | – | – | – | – | – | – | –
13 | CCCOc1ccc([C@H]2[C@H](C(=O)O)[C@@H](c3ccc4c(c3)OCO4)CN2CC(=O)Nc2c(CC)cccc2CC)cc1 | – | – | – | – | – | – | – | – | 70.6% | 2.13% | 0.276% | 10.2% | 23% | 57.6% | 6.95% | -5.23%
14 | O=C(NOC[C@H](O)CO)c1ccc(F)c(F)c1Nc1ccc(I)cc1F | – | – | – | – | – | – | – | – | -6.44% | 6.08% | -6.76% | -3.87% | -2.11% | 39.9% | -1.39% | 5.67%
15 | Cc1cc(OCC(=O)O)cc(C)c1Cc1ccc(O)c(C(C)C)c1 | 57.9% | -0.29% | 4.61% | 7.26% | 20.6% | 9.54% | 63% | 2.02% | – | – | – | – | – | – | – | –
16 | CS(=O)(=O)c1cc(C2(NC(=O)c3cncc4c3cnn4-c3ccc(F)cc3)CC2)ccn1 | – | – | – | – | – | – | – | – | 53.3% | -0.745% | 1.04% | -1.05% | 7.38% | 54.5% | 0.429% | 0.0274%
17 | CC(C)(O)c1cn(-c2ccc(-c3cccc(S(C)(=O)=O)c3)cc2)c(C(C)(C)c2ccccc2Cl)n1 | 15.3% | -5.44% | -6.36% | -2.6% | 5% | 17.1% | 57.4% | -9.54% | – | – | – | – | – | – | – | –
18 | C=CC(=O)Nc1ccc2[nH]c(=O)n(C3CCN(Cc4ccc(-c5ccc6c(c5)NC(=O)CO6)cc4)CC3)c2c1 | 22.1% | 2.54% | -1.48% | -2.83% | 15.8% | 16.7% | 30.3% | 1.08% | – | – | – | – | – | – | – | –
19 | CN1CCC[C@H]1c1cccnc1 | -6.38% | 4.6% | -0.35% | 8% | -8.49% | -4.08% | -9.56% | -2.67% | – | – | – | – | – | – | – | –
20 | COc1cccc(Cn2cc(C(=O)Nc3ccc(C)c(S(=O)(=O)N4CCOCC4)c3)c(-c3ccc(C)cc3)n2)c1 | 52.8% | -9.23% | -7.38% | 1.34% | 11.1% | 2.42% | 97.5% | -6.33% | – | – | – | – | – | – | – | –
